In one test the target is T1, dCTP pyrophosphatase 1 (Homo sapiens, UniProt Q9H773).
T1 sequence (Q9H773 whole entry): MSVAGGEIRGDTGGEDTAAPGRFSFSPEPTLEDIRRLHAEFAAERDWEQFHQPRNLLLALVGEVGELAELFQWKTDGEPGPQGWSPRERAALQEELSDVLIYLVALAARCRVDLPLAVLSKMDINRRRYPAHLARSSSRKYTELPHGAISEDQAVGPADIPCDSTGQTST

Test [1] has as its target T2, Ras-related protein Rab-27A (Homo sapiens, UniProt P51159).
T2 sequence (P51159 whole entry): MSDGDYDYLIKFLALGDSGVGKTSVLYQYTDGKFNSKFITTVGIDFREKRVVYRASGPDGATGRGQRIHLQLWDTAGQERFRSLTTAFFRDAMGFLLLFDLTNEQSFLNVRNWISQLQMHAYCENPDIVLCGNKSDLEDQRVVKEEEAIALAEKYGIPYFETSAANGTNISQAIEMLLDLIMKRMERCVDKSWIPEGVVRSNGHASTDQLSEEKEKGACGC

For test [2], the target named is Insulin-like growth factor 1 receptor (Homo sapiens, UniProt P08069).
Test [3] addresses T3, Dual specificity mitogen-activated protein kinase kinase 6 (Homo sapiens, UniProt P52564).
T3 sequence (P52564 whole entry): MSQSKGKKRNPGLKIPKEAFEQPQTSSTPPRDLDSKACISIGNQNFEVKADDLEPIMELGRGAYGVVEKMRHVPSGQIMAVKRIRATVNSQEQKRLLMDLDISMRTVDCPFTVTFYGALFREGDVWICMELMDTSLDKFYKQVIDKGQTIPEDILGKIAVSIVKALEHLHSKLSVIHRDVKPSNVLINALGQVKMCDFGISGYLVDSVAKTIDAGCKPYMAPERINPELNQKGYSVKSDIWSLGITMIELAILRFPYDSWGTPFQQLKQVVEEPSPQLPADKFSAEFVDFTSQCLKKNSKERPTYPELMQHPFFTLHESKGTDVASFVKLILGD

In test [4] the target is Interleukin-1 receptor-associated kinase 1 (Homo sapiens, UniProt P51617).
The target in test [5] is Serine/threonine-protein kinase B-raf (Homo sapiens, UniProt P15056).
Test [6] deals with T4, Bone morphogenetic protein receptor type-2 (Homo sapiens, UniProt Q13873).
T4 sequence (Q13873 whole entry): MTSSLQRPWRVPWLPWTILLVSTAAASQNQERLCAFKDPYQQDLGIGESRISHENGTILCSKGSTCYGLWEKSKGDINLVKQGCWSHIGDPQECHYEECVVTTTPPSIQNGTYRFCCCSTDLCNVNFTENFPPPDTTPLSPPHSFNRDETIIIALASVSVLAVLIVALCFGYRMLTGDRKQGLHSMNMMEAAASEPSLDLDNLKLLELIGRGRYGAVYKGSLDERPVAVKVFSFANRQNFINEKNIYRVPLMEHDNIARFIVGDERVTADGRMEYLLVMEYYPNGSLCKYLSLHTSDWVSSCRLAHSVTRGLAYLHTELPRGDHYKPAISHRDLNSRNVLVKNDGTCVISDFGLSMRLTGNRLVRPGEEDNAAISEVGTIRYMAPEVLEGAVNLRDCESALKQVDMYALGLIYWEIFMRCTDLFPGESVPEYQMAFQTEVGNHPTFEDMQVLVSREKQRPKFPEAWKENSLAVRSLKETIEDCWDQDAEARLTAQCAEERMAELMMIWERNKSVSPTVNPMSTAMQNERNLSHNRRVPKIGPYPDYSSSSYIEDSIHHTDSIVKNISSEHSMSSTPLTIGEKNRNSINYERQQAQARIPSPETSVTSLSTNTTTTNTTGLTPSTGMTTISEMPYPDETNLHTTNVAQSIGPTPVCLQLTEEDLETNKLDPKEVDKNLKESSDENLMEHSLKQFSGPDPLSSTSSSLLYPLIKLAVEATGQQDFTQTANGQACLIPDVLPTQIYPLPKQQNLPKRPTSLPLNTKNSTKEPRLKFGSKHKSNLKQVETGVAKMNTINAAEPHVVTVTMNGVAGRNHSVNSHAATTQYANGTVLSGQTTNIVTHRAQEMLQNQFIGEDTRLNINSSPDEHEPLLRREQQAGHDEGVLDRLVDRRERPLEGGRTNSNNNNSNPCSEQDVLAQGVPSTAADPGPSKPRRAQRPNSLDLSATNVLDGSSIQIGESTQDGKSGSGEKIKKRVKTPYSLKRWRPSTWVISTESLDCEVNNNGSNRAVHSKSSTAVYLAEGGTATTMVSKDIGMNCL

The target in test [7] is Mitogen-activated protein kinase 7 (Homo sapiens, UniProt Q13164).
In test [8] the target is Tyrosine-protein kinase SYK (Homo sapiens, UniProt P43405).
For test [9], the target named is Tyrosine-protein kinase Lyn (Homo sapiens, UniProt P07948).
In test [10] the target is T5, Peroxisomal acyl-coenzyme A oxidase 1 (Homo sapiens, UniProt Q15067).
T5 sequence (Q15067 whole entry): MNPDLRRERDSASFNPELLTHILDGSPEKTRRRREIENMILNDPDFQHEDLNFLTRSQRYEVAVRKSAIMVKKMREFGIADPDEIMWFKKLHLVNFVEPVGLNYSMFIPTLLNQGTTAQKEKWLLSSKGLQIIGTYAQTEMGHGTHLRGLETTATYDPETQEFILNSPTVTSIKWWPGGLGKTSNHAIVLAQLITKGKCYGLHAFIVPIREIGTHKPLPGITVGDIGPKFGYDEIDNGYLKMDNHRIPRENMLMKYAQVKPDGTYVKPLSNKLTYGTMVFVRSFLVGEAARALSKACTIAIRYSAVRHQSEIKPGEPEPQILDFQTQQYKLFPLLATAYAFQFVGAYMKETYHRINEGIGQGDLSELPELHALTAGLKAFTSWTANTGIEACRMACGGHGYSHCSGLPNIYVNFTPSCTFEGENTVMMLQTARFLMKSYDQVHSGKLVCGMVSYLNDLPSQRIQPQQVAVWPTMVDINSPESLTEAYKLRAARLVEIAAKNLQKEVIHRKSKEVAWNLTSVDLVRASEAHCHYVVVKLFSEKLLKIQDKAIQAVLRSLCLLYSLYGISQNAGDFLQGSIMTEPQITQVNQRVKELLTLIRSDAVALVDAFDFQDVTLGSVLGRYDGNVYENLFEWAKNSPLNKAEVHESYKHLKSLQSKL

Activity calls are given as the source filed them.
Also: in the data inactive means no Kd found up to 30 µM.

Chain of Interleukin-1 receptor-associated kinase 1 (P51617 whole entry): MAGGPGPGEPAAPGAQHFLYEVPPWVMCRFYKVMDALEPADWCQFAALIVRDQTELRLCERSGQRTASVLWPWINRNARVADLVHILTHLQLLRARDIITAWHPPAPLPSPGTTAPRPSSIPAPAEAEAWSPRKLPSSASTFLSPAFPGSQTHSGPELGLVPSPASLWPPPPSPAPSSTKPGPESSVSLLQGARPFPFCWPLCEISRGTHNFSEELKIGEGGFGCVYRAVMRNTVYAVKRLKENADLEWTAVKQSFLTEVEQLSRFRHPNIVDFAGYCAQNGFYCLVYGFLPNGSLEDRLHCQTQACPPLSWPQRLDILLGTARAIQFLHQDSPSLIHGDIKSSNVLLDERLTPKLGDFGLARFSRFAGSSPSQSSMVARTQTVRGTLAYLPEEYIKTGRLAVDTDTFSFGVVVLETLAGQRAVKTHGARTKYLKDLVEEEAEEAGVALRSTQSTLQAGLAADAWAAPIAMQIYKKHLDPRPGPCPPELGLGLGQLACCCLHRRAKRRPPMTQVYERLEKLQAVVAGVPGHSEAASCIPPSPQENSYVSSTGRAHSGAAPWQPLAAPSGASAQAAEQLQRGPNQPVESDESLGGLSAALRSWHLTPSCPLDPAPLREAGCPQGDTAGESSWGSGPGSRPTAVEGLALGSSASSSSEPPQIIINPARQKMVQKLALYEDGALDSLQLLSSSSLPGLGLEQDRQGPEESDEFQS
Chain of Mitogen-activated protein kinase 7 (Q13164 whole entry): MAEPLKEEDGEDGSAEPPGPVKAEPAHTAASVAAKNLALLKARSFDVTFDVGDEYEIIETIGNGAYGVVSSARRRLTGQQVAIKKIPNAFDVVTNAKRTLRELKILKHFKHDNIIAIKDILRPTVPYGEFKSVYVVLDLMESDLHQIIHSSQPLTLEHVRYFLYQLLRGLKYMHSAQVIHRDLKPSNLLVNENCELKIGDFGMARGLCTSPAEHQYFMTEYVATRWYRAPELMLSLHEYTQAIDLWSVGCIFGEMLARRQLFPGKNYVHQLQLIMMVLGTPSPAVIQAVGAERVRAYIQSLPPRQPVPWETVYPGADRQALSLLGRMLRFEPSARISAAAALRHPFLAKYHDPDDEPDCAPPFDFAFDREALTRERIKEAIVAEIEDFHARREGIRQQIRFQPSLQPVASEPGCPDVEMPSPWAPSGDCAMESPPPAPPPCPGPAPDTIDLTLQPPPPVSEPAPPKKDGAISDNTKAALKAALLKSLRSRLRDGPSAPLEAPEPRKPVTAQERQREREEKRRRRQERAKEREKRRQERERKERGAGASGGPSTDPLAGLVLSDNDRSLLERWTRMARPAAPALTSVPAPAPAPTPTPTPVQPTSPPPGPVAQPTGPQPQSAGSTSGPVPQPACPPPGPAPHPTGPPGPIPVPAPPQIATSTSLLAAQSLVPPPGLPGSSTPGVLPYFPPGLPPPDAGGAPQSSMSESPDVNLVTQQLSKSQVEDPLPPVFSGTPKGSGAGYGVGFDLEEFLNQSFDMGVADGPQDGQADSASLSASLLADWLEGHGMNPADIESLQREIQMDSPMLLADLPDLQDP
Chain of Tyrosine-protein kinase Lyn (P07948 whole entry): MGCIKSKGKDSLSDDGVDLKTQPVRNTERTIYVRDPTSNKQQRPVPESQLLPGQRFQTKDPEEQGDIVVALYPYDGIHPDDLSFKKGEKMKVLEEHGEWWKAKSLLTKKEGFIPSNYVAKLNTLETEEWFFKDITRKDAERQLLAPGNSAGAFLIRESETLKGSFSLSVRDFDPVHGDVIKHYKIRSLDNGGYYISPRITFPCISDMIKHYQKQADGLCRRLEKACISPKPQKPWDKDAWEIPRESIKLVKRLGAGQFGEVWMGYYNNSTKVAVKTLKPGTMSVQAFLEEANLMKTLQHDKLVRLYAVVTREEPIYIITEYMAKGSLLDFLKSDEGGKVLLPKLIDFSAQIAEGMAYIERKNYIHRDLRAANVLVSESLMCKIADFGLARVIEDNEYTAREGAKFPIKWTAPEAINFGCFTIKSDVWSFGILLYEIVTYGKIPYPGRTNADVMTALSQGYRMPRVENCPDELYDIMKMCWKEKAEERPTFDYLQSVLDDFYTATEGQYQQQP
Chain of Serine/threonine-protein kinase B-raf (P15056 whole entry): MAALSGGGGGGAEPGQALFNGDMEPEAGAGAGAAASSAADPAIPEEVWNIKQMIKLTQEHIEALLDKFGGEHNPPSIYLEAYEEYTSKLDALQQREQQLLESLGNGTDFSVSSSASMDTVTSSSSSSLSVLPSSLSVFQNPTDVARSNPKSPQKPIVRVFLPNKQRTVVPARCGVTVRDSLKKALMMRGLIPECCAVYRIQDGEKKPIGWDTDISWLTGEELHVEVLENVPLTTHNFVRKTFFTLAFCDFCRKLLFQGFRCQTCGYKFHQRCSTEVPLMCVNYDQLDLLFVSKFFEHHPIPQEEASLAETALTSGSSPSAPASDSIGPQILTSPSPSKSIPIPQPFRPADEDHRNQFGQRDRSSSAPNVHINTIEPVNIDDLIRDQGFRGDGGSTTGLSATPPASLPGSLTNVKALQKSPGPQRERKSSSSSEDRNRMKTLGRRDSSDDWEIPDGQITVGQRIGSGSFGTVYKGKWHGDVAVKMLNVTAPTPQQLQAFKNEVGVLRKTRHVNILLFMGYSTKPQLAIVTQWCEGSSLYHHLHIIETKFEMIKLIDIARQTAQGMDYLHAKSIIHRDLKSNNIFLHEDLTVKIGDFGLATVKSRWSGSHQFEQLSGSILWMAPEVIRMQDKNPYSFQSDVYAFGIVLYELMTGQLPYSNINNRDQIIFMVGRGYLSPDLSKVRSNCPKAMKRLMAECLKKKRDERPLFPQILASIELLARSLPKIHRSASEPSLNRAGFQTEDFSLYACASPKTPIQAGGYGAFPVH
Chain of Insulin-like growth factor 1 receptor (P08069 31-736 limits assumed): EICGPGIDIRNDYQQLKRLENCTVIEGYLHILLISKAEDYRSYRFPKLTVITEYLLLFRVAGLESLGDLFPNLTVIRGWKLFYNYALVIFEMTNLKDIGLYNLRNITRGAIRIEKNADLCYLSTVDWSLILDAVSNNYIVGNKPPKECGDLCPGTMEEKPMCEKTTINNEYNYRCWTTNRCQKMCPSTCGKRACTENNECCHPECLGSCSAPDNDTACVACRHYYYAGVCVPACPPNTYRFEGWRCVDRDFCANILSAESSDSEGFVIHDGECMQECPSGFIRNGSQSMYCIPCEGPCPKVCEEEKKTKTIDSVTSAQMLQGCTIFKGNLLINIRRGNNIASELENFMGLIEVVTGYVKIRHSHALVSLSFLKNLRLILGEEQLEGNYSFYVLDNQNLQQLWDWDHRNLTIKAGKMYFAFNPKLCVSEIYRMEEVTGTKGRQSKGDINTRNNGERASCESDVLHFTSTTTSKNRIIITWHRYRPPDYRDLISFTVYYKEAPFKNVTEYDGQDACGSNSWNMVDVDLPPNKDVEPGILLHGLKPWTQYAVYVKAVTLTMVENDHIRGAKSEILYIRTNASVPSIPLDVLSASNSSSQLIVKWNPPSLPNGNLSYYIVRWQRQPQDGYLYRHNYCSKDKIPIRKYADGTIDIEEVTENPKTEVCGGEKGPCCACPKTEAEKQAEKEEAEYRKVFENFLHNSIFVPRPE
Chain of Insulin-like growth factor 1 receptor (P08069 741-1367 limits assumed): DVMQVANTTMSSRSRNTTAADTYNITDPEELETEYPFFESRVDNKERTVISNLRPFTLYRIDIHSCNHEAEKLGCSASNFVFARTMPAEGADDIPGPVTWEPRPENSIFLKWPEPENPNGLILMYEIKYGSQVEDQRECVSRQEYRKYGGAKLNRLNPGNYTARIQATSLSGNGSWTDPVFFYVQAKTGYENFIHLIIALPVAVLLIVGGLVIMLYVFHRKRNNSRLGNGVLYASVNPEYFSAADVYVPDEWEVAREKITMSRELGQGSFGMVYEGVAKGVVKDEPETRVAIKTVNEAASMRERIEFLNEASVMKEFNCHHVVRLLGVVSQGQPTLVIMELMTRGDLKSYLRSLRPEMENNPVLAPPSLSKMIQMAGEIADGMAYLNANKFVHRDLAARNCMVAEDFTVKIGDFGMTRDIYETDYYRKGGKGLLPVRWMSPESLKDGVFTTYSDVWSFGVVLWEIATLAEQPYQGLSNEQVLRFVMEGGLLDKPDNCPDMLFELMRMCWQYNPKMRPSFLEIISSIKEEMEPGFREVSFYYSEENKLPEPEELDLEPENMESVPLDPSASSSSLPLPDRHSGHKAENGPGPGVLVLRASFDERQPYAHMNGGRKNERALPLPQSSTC

As usually defined, the Kd is the concentration at which binding is half-saturated. Turning to `C=CC(=O)N1CCC[C@H](n2c(=O)n(-c3ccc(Oc4ccccc4)cc3)c3c(N)ncnc32)C1`, the Kd (on dCTP pyrophosphatase 1; in test [1]; in test [2]; in [3]; in test [4]; in test [5]) was > 30 µM (inactive) each time. Besides, the Kd was > 30 µM (inactive) in test [6], > 30 µM (inactive) in test [7], > 30 µM (inactive) in [8] and 0.006 µM in test [9].

As for `Nc1ncnc2c1c(-c1cccc(OCc3ccccc3)c1)cn2[C@H]1C[C@@H](CN2CCC2)C1` [AEW-541], the Kd (at dCTP pyrophosphatase 1; in test [1]; in test [3]; in [4]; in test [5]; in [6]) was > 30 µM (inactive) throughout. The Kd was > 30 µM (inactive) in test [7], > 30 µM (inactive) in test [8] and 2.44 µM (active) in test [9].

`Cc1cc(C(=O)NOCCO)c(Nc2ccc(I)cc2F)n(C)c1=O` [AZD-8330]: the Kd (at dCTP pyrophosphatase 1; in test [1]; in [2]; in [3]; in test [4]; in test [5]) was > 30 µM (inactive) throughout. In addition, the Kd in [6], in test [7], in test [8] and in test [9] was > 30 µM (inactive) throughout.

For the molecule `COc1cc2ncnc(Oc3cccc(NC(=O)Nc4cc(C(C)(C)C(F)(F)F)on4)c3)c2cc1OC` [CEP-32496], the Kd was > 30 µM (inactive) at dCTP pyrophosphatase 1; > 30 µM (inactive) in test [1]; > 30 µM (inactive) in test [2]; > 30 µM (inactive) in [3]; > 30 µM (inactive) in test [4]; 2.85 µM (active) in [5]. Further, the Kd was > 30 µM (inactive) in [6], > 30 µM (inactive) in test [7], > 30 µM (inactive) in test [8] and 0.771 µM (active) in test [9].

Consider `Cc1nc2cc(-n3ncc(C(=O)c4cc5ccccc5[nH]4)c3N)ccc2[nH]1` [FGFR INHIBITOR DEBIO 1347], for which the Kd (on dCTP pyrophosphatase 1; in [1]; in [2]; in test [3]; in test [4]; in [5]) was > 30 µM (inactive) in each case. In addition, the Kd in [6], in test [7], in [8] and in [9] was > 30 µM (inactive) in each case.

On to `COc1ccc(S(=O)(=O)N(C(C)=O)c2ccccc2/C=C/c2cc[n+]([O-])cc2)cc1` [HMN-214], for which the Kd (at dCTP pyrophosphatase 1; in test [1]; in test [2]; in test [3]; in test [4]; in test [5]) was > 30 µM (inactive) each time. The Kd in test [6], in [7], in [8] and in test [9] was > 30 µM (inactive) each time.

Regarding `CNC(=O)c1cccc2cc(Oc3ccnc4cc(OCC5(N)CC5)c(OC)cc34)ccc12` [LUCITANIB], the Kd (at dCTP pyrophosphatase 1; in test [1]; in [2]; in test [3]; in [10]; in test [4]) was > 30 µM (inactive) throughout. In addition, the Kd in test [6] was > 30 µM (inactive); in [7] it was > 30 µM (inactive); in test [8], > 30 µM (inactive); in [9], 2.76 µM (active).

For the molecule `Cc1cnc(NC(=O)Nc2cc(Br)c(C)cc2OC[C@@H]2CNCCO2)cn1` [RABUSERTIB], the Kd (at dCTP pyrophosphatase 1; in test [1]; in test [2]; in test [3]; in [10]; in test [4]) was > 30 µM (inactive) each time. The Kd in test [6], in test [7], in [8] and in test [9] was > 30 µM (inactive) throughout.

Take `CCS(=O)(=O)c1cccc(-c2cc(C(=O)NC3CCN(C)CC3)c(C)c3[nH]c4ncc(C)cc4c23)c1` [TAK-901]: the Kd (at dCTP pyrophosphatase 1; in test [1]; in [2]; in [3]; in [10]; in test [4]) was > 30 µM (inactive) each time. The Kd is > 30 µM (inactive) in test [6], > 30 µM (inactive) in test [7], 4.66 µM (active) in [8] and 0.357 µM (active) in test [9].

On to `COc1cc2c(Nc3ccc(Cl)c(Cl)c3F)ncnc2cc1OC[C@@H]1C[C@@H]2CN(C)C[C@@H]2C1` [TESEVATINIB], for which the Kd (at dCTP pyrophosphatase 1; in [1]; in [2]; in test [3]; in test [10]; in [4]) was > 30 µM (inactive) in each case. In addition, the Kd in test [6] is > 30 µM (inactive); in test [7] it was > 30 µM (inactive); in [8], > 30 µM (inactive); in test [9] it was 1.13 µM (active).

Source of the values: ChEMBL document CHEMBL3991601, “The target landscape of clinical kinase drugs” (Science, 2017).
